Experimental findings from patent publication US10702497B2, “Use of acyl-homoserine lactone derivatives as anti-thrombotic agents” (The University of Toledo, priority 2015, dated 2020) are described below.

Where only a bound is given, the exact number is not on record here.

Common to all, as to assay type: cell-based
The test system of assay [1] is human platelets. Description: aggIgG-induced platelet activation, surface CD62P by flow cytometry. Particulars: aggIgG 50 or 500 μg/ml; several concentrations of AHL. A general note: Flow cytometry measures light scatter and fluorescence of single cells or particles in a stream.
Assay [2] relates to human platelets. Description: Thrombin-induced platelet activation, surface CD62P by flow cytometry. As to conditions: 0.1 U/ml thrombin; for maximal inhibitory concentration (MIC) for thrombin: AHL pre-incubation 15 minutes at 37° C., CD62P; for inhibition of platelet activation by thrombin: several concentrations of AHL.
Assay [3] concerns human platelets. Briefly: Platelet tyrosine phosphorylation (whole cell lysates, SDS-PAGE, anti-phosphotyrosine blot). As to conditions: 20 μM 12C-AHL. The procedure: FIGS. 3A-3C: Effect of AHLs on tyrosine phosphorylation. Human platelets were incubated with PBS or 12C-AHL then left unstimulated or stimulated with […] aggIgG or 0.1 Um′ thrombin. Whole cell lysates were prepared as described in the examples and blotted for anti-phosphotyrosine or anti-GAPDH as loading control. (FIG. 3A.) To determine band intensities, total band intensity in the phosphorylation gel was divided by the GAPDH signal and plotted as total band intensity. (FIG. 3B.) Intensity of the indicated band was compared to GAPDH and plotted as band intensity. (FIG. 3C.)
Results from the above experiments indicate that AHLs are altering platelet signaling downstream of FcγRIIa (the receptor for aggIgG) and thrombin receptors (PAR1/4) to a lesser extent. To test this, human platelets were incubated with PBS or 20 μM 12C-AHL for 15 min at 37° C. followed by stimulation with thrombin or aggIgG. Whole cell lysates were separated by SDS-PAGE and blotted for phosphotyrosine.

In assay [4] the test system is human platelets. Description: Platelet phagocytosis of IgG-coated beads through FcγRIIa (flow cytometry). Particulars: FITC-IgG-coated 1.5 μm beads, 30 minutes. As for the experimental part: FIGS. 4A-4C: Effect of AHLs on platelet-mediated phagocytosis. Human platelets were incubated as indicated in the examples and analyzed by flow cytometry for FITC-IgG and PE-anti-IgG. (FIG. 4A.) Platelets were incubated with PBS, 10C- or 12C-AHLs or cytochalasin D (positive control to block phagocytosis), then exposed to FITC-IgG-coated […] beads for 30 minutes, labeled with anti-IgG conjugated to PE and analyzed by flow cytometry for FITC-IgG and PE-anti-IgG. (FIG. 4B.) Platelets were treated as in FIG. 4B and surface CD62P expression was measured by flow cytometry. * p<0.01, ** p<0.005. (FIG. 4C.)
Polystyrene beads, 1.5 μm in diameter, (Polysciences, Warrington, Pa.) were opsonized for 2 hours at 21° C. in a 10 mg/ml solution FITC labeled human IgG (SigmaAldrich, St. Louis, Mo.) or unlabeled human IgG for controls. After washing three times in PBS, beads were then resuspended in buffer and counted via hemacytometer. […]
Samples were prepared for flow cytometry and platelets with associated beads were gated on CD42b+/FITC+ and analyzed for internal/external by the absence/presence of PE expression on a FACSCalibur (B-D Biosciences). […] Data were analyzed using Cell Quest (B-D Biosciences) and FlowJo (Tree Star, Inc., Ashland, Oreg.) software.
Because AHLs inhibit signaling (especially aggIgG-induced tyrosine phosphorylation), whether other platelet activities are inhibited was evaluated. […]

For the molecule `CCCCCCCC(=O)CC(=O)N[C@H]1CCOC1=O` [10C-AHL, N-(3-oxodecanoyl)-L-homoserine lactone], the “inhibition of platelet activation by aggIgG” value in the assay on human platelets [1] was “inhibit platelet activation”. In addition, in the assay on human platelets [2], the “maximal inhibitory concentration (MIC) for thrombin” value was 200 µM and the “inhibition of platelet activation by thrombin” value is listed as “inhibit platelet activation”.

In the case of `CCCCCCCCCC(=O)CC(=O)N[C@@H]1CCOC1=O` [12C-AHL, N-oxo-dodecanoyl-L-homoserine lactone], the “inhibition of platelet activation by aggIgG” value in the assay with human platelets [1] is “inhibit platelet activation”. In addition, in the assay on human platelets [3] (15 min at 37° C., unstimulated), the “effect on tyrosine phosphorylation in unstimulated platelets” value is “marginal effect”. Also, the “effect on tyrosine phosphorylation in platelets stimulated with thrombin” value in the assay on human platelets [3] (0.1 U/ml thrombin) is “marginal effect”. For the same molecule, in the assay on human platelets [3] (aggIgG stimulation), the “effect on phosphorylation induced by aggIgG” value is “nearly completely abolished”. Also, in the assay with human platelets [2], the “maximal inhibitory concentration (MIC) for thrombin” value is 200 µM and the “inhibition of platelet activation by thrombin” value is reported as “inhibit platelet activation”.

In the case of `C=C1[C@@H](C)[C@H]2[C@H](Cc3ccccc3)NC(=O)[C@]23[C@H](OC(C)=O)/C=C/[C@@](C)(O)C(=O)[C@@H](C)C/C=C/[C@H]3[C@@H]1O` [cytochalasin D], in the assay on human platelets [4], the “inhibition of the phagocytic activity of platelets” value is on record as above 90%.
